Legend:
[1] = tested on: MCA205 tumours; assay: Established MCA205 tumours in immunocompetent mice; format: in vivo, immunocompetent C57BL/6 mice; conditions: immunocompetent C57BL/6, 0.18 mg/kg i.v. day 1, 7 and 14
Protocol: Live MCA205 cells were injected subcutaneously (s.c.) into immunocompetent C57BL/6 mice or immunodeficient nu/nu mice as depicted in the scheme in (a) When tumours became palpable, mice were intravenously (i.v.) injected with […] lurbinectedin (on day 1, 7 and 14). Tumour growth was assessed regularly for the following 30 days. Data is depicted as tumour growth curves (b,d) and overall survival plots (c,e). Data were analyzed with TumGrowth.
In order to assess the capacity of lurbinectedin to stimulate anticancer immunity in a monotherapeutic approach and to convert tumour cells into a therapeutic vaccine we exposed murine fibrosarcoma cells to the drug in vitro (in conditions previously established to induce a sufficient amplitude of cell death) and then injected the dying cancer cells into syngeneic immunocompetent mice. […] Next we evaluated the effect of lurbinectedin on established cancers growing on immunocompetent or immunodeficient mice. […]
Six- to eight-week-old female wild-type C57BL/6 and nu/nu mice were obtained from Envigo France (Huntingdon, UK) and were kept in the animal facility at the Gustave Roussy Campus Cancer in a specific pathogen-free and temperature-controlled environment with 12 h day, 12 h night cycles and received food and water ad libitum. […] Animals were monitored and tumour growth documented regularly until end-points were reached. […]

[2] = tested on: eukaryotic translation initiation factor 2 alpha (eIF2α); assay: eIF2α phosphorylation by immunofluorescence with phosphoneoepitope-specific antibody; format: cell-based, human; conditions: U2OS; 10, 50 or 100 nM; 6 hours
Protocol: Human osteosarcoma U2OS cells were treated with 10, 50 or 100 nM lurbinectedin (Lurbi) for 6 hours. Thapsigargin (Thaps, 3 μM) was used as a positive control. The cells were fixed with 3.7% PFA and DNA was stained with 1 μM Hoechst 33342. Following the phosphorylation of the eukaryotic translation initiation factor 2 alpha (eIF2a) was assessed with phosphoneoepitope-specific antibody and was monitored by means of automated microscopy as an increase in cytoplasmic fluorescence intensity. (a,b) The level of transcription was measured in U2OS cell treated as above with Lurbi. The transcription inhibitor actinomycin D (ActD) was used as a control. The cells were fixed as above and following the colocalization of nucleolin and fibrillarin was assessed as an indicator for transcriptional activity (c,d) Scale bar equals 10 μm and bar charts depict mean values±SD of quadruplicate assessments (*p<0.01; *p<0.001, two-tailed Student's t test).
In a systematic screening campaign, the capacity of lurbinectedin to induce immunogenic cell death in cancer cells was assessed in human osteosarcoma U2OS cells stably expressing fluorescent biosensors for the detection of CALR-relocation (as a surrogate marker for CALR surface exposure), HMGB1 release and Type I IFN responses together with U2OS WT cells stained with the ATP-sensitive dye quinacrine. […]

`COc1ccc2[nH]c3c(c2c1)CCN[C@]31CS[C@@H]2c3c(OC(C)=O)c(C)c4c(c3[C@H](COC1=O)N1[C@@H]2[C@H]2c3c(cc(C)c(OC)c3O)C[C@@H]([C@@H]1O)N2C)OCO4` [lurbinectedin] was tested, and the overall survival [1] was “increased”, the tumour growth ([1]; vs control animals, p<0.0001) was “significantly reduced” and the “phosphorylation of eIF2α” value [2] was “dose-dependent phosphorylation”.

— US20250295656A1, “COMBINATION OF LURBINECTEDIN AND IMMUNE CHECKPOINT INHIBITORS” (priority 2020, published 2025)
